The values that follow come from publication PMC12980303, “Development of a novel risk score reflecting the relative harm potential of synthetic cannabinoids based on prevalence estimates, well‐documented intoxication cases and basic pharmacological data” (Addiction (Abingdon, England), 2025).

“And” between values parts separate entries of the source, which are not always exact repeats. Identical values can stand only once. Like-named read-outs stand apart in the source and are kept apart here. Marks after values point to notes of the source that are not given here.

The target in data set [1] is T1, hCB1 receptor (Homo sapiens, UniProt P21554). Nature of the data set: functional [35S]GTPγS hCB1 activation assay. In kind it is biochemical. Conditions: for Emax: read-out: [35S]‐GTPγS assay Emax [%] (95% CI). As to the method:
(§1) Receptor assays were performed on three different days and each concentration was tested in duplicate.

In data set [2] the target is T1, hCB1 receptor. Nature of the data set: competitive [3H]CP‐55940 radioligand binding assay (hCB1 receptor affinity). The following applies: Ki [nM] (95% CI), [3H]CP‐55940 competition, hCB1 membrane preparations (HEK293‐EBNA), Cheng–Prusoff; 95% CI in brackets. How it is done:
as §1
From the IC50, the respective Ki values were calculated using the Cheng–Prusoff equation [39].

Data set [3] deals with T1, hCB1 receptor.
Data set [4] is described as follows: risk score from prevalence in routine forensic samples and intoxication cases (G1, PSS, TSS). The arrangement: species or system human. Conditions: for G total (risk score): G1+G2+G3, higher value = greater toxicological risk; for G2: mean Poison Severity Score (PSS) of all intoxications with the SCRA; for G3: mean Toxicological Significance Score (TSS) of all intoxications with the SCRA; for G1: proportion in intoxication cases relative to prevalence in routine serum/blood and urine samples per quarter, 2013–2021, >1 over‐represented in intoxications. The text has this:
Therefore, higher values indicate substances with a higher risk. […] To take into account the severity of symptoms and the contribution of the specific NPS, two further summands were introduced. The first is based on the PSS, the second on the TSS. Again, higher values were associated with more severe symptoms and a stronger role of the NPS in causing the symptoms.
The risk score is composed of three components (parts G1, G2 and G3) and was designed as follows: (1) Gx=G1x+G2x+G3x,
Equation 2 takes into consideration several components: the number of intoxications with SCRA x in quarter k over the total number of intoxications of all investigated SCRAs in the same quarter; the number of serum/blood samples positive for SCRA x over the total number of serum/blood samples positive for all SCRAs plus the number of urine samples positive for SCRA x over the total number of urine samples positive for all SCRAs (this is divided by two to account for the two different sample types); and the number of quarters in which the SCRA x was prevalent. (2) G1x=∑k=1gak/bk/ck/dk+ek/fk/2/h+i
Consequently, equation 2 was mathematically rearranged. To further simplify the equation and reduce the formula signs, in equation 3 the following simplifications were taken: a/b=ai , c/d=as and e/f=au .
The sum of these quotients was divided by the number of all prevalent quarters (q p ). Prevalent quarters were defined as quarters in which on average the substance was detected in more than 5% of the positive serum and urine samples. If a poisoning occurred in a quarter in which the substance was not prevalent, the number of these quarters was added (q i ). This part of the score has similarities with an OR [42]. If the proportion of routine samples in a given quarter in which an intoxication with the respective substance occurred was zero (a s + a u = 0), a value of 0.01 was used for that quarter in the calculation of the quotient to avoid division by zero.
For part G2, the severity of the intoxication caused by the respective SCRA x was assessed on the basis of reported symptoms and follow‐up information using the PSS [20]. The PSS classifies the intoxication severity into five levels: (0) no, (1) mild, (2) moderate, (3) severe, and (4) fatal intoxication. […] For this purpose, the mean value of the PSS of all intoxications with the respective SCRA x was calculated ( G2x) .
For part G3, the involvement of the SCRA in the respective intoxications was assessed. This was evaluated on the basis of the TSS [21]. Elliott et al. developed the TSS to assess and classify the contribution of NPS in fatalities. In the present study, the TSS was determined to weigh the involvement of the investigated SCRA in the intoxication and the contribution of the SCRA to the observed symptoms. To determine the TSS value, factors such as the determined concentration of the SCRA, the presence of other recreational drugs or medicinal drugs, the general health of the patient and the consumption circumstances need to be considered. […] In cases with more than one drug detected, a TSS of 3 was only assigned where other compounds were present at concentrations below the range in which relevant effects are to be expected.
For the risk score, the mean value of the TSS of all intoxications with substance x was calculated ( G3x) . Analogous to the value of G2x , the value of G3x can theoretically be between 1 and 3. With a value of ‘1’, substance x was not mainly responsible for the symptoms in all of the intoxications (low level of significance), and with a value of ‘3’, it was the main cause in every poisoning in which it was detected.

Data set [5] in a line: occurrence of SCRAs in intoxication samples of the prospective study. Set-up: species or system human. Conditions: 2013 to 2021; for No. of intoxications: 139 intoxication samples of the prospective study; for Percentage in %: proportion of 139 intoxications in which the substance was detected. The text has this: For this study, the 10 SCRAs (AB‐[…], ADB‐[…], AB‐FUBINACA, FUB‐AMB, Cumyl‐PEGACLONE, MDMB‐4en‐PINACA, MDMB‐CHMICA, 5F‐MDMB‐PICA, 5F‐ADB and 5F‐PB‐22) which were most frequently detected in intoxications in a prospective observational study during the time period of 2013 to 2021 were selected (see Table 1). Additionally, JWH‐210, a model compound representative of the early SCRAs, along with two substances prevalent in screenings during years 2019/2020 (5F‐Cumyl‐PEGACLONE and 4F‐MDMB‐BICA), were included in this study (see Tables S2–S7). […] JWH‐018 was also included as a reference compound because of its historical use in this capacity. Including both reference compounds facilitates direct comparison with previously published data, thereby enhancing the relevance and interpretability of the results obtained in the present study. Information on the origin of the test and reference compounds and all chemicals used in this study can be found in Table S1.
The data on intoxication cases used for the development of this risk score were obtained from a prospective study. This study included patients who were treated in an emergency department room following the consumption of an NPS. Clinical symptoms and follow‐up information were documented using a structured questionnaire completed by the attending physicians. The methodology has been previously published. Residual serum (obtained from venous blood) and urine samples, accompanied by the completed questionnaires, were sent to the Poisons Information Center Freiburg for further analysis. The toxicological analyses of serum and urine samples were conducted at the Institute of Forensic Medicine Freiburg. No data was available on previous consumption patterns or potential development of tolerance after continued misuse. The study was conducted in accordance with the Declaration of Helsinki and approved by the regional ethics committee of the University of Freiburg (no. 235/13_130683). The intoxication cases included in this study are those in which SCRA use was confirmed by liquid chromatography tandem mass spectrometry (LC–MS/MS).

The mark [6] stands for this setting: relative to CP‐55940; ref Grafinger et al. [27]; cited from earlier work.

T1 sequence (P21554 whole entry): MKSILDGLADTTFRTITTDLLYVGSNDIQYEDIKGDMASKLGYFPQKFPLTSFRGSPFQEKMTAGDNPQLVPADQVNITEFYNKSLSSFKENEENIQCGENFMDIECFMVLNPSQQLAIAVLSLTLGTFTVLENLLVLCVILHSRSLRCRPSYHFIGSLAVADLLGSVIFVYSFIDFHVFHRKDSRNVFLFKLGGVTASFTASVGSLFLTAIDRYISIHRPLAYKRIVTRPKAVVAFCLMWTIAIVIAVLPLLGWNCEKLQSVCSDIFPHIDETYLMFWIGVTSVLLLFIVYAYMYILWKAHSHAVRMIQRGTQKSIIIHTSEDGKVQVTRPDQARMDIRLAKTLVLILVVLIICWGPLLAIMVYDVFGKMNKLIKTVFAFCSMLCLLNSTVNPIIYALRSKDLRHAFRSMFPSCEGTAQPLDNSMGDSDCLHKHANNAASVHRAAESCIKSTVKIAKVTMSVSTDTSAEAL

In general, EC50 refers to the midpoint of the concentration-response curve. The Emax is the size of the effect at its maximum, as opposed to the concentration needed. A word on the Ki: it is the dissociation constant of the complex between target and ligand, obtained from inhibition or displacement. Read a low Ki as a stronger hold on the target. On to `CCCCCn1cc(C(=O)c2cccc3ccccc23)c2ccccc21` [JWH‐018, reference compound], for which, at hCB1 receptor [1], the EC50 was determined as 38.6 nM and the Emax is 118%. Besides, affinity on hCB1 receptor [2] was put at a Ki of 2.86 nM. Moreover, the “βarr2 assay Emax [%] (95% CI)” value at hCB1 receptor [3] (setting [6]) is reported as 306 ^b (281–333) %.

For the compound `COC(=O)C(NC(=O)c1cn(CC2CCCCC2)c2ccccc12)C(C)(C)C` (centres unmarked) [MDMB‐CHMICA], in data set [4], the “G total (risk score)” value stood at 5.7, the G2 was 2.2, the G3 was 2.8 and the G1 stood at 0.73. Moreover, on hCB1 receptor [1], the concentration for a half-maximal effect (EC50) is 11.8 nM and the Emax was 103%. The same compound yielded a Ki on hCB1 receptor [2] of 0.935 nM. In addition, in data set [5], the No. of intoxications came out at 31 and the Percentage in % is on record as 22%. For the same compound, at hCB1 receptor [3] (read-out: βarr2 assay EC50 [nM] (95% CI); ref Wouters et al. [31]; cited from earlier work), the EC50 was 2.2 nM. Moreover, the “βarr2 assay Emax [%] (95% CI)” value at hCB1 receptor [3] (relative to CP‐55940; ref Wouters et al. [31]; cited from earlier work) is 885.7 (818.5–958.0) %.

With `CC(C)(c1ccccc1)n1ccc2c(c1=O)c1ccccc1n2CCCCCF` [5F‐Cumyl‐PEGACLONE], in data set [4], the “G total (risk score)” value was found to be 3.1, the G2 stood at 2.0, the G3 was 1.0 and the G1 is 0.11. Also, at hCB1 receptor [1], the response was half-maximal at 1.64 nM (EC50) and the Emax turned out to be 105%. At hCB1 receptor [2], this compound displayed an inhibition constant (Ki) of 0.0991 nM. Besides, in data set [5], the No. of intoxications is 1 and the Percentage in % amounted to 0.72%. The concentration giving a half-maximal response (EC50) on hCB1 receptor [3] (read-out: βarr2 assay EC50 [nM] (95% CI); ref Janssens et al. [43]; cited from earlier work) was 0.58 nM. Also, on hCB1 receptor [3] (relative to CP‐55940; originally normalised to JWH‐018, corrected with factor 0.3268; ref Janssens et al. [43]; cited from earlier work), the “βarr2 assay Emax [%] (95% CI)” value was 1089 (988.4–1190) ^a %.

On to `CC(C)(C)C(NC(=O)c1nn(CC2CCCCC2)c2ccccc12)C(N)=O` (centres unmarked), for which, in data set [4], the “G total (risk score)” value was determined as 7.1, the G2 turned out to be 2.1, the G3 came to 2.7 and the G1 is 2.3. Also, on hCB1 receptor [1], the EC50 was found to be 0.467 nM and the Emax is 124%. Besides, the Ki at hCB1 receptor [2] was 0.0229 nM and 0.0231 nM. In addition, in data set [5], the No. of intoxications worked out at 18 and the Percentage in % is 13%. In addition, the EC50 on hCB1 receptor [3] (read-out: βarr2 assay EC50 [nM] (95% CI); ref Wouters et al. [29]; cited from earlier work) was 0.34 nM. Also, the “βarr2 assay Emax [%] (95% CI)” value on hCB1 receptor [3] (relative to CP‐55940; originally normalised to JWH‐018, corrected with factor 0.3268; ref Wouters et al. [29]; cited from earlier work) is 803.6 ^a (724.3–921.4) %.

`C=CCCCn1nc(C(=O)NC(C(=O)OC)C(C)(C)C)c2ccccc21` (centres unmarked) [MDMB‐4en‐PINACA]: in data set [4], the “G total (risk score)” value is on record as 6.8, the G2 is 2.2, the G3 is given as 3.0 and the G1 is given as 1.6. Moreover, on hCB1 receptor [1], the midpoint of the response, the EC50, lay at 13.4 nM and the Emax amounted to 114%. In data set [5], the No. of intoxications amounted to 6 and the Percentage in % turned out to be 4.3%. Further, on hCB1 receptor [3] (ref Grafinger et al. [27]; read-out: βarr2 assay EC50 [nM] (95% CI); cited from earlier work), the concentration for a half-maximal effect (EC50) is 1.88 nM. Further, the “βarr2 assay Emax [%] (95% CI)” value on hCB1 receptor [3] (setting [6]) is recorded as 679 (623–730) %.

With `COC(=O)C(NC(=O)c1cn(CCCCF)c2ccccc12)C(C)(C)C` (centres unmarked) [4F‐MDMB‐BICA], in data set [4], the “G total (risk score)” value is reported as 5.5, the G2 is 2.0, the G3 is recorded as 3.0 and the G1 is on record as 0.48. Also, on hCB1 receptor [1], the midpoint of the response, the EC50, lay at 137 nM and the Emax turned out to be 104%. The affinity on hCB1 receptor [2], expressed as Ki, was 5.67 nM. In data set [5], the No. of intoxications was 2 and the Percentage in % is 1.4%. Moreover, the 50% effective concentration (EC50) at hCB1 receptor [3] (read-out: βarr2 assay EC50 [nM] (95% CI); ref Cannaert et al. [44]; cited from earlier work) is 121 nM. Further, the “βarr2 assay Emax [%] (95% CI)” value on hCB1 receptor [3] (relative to CP‐55940; originally normalised to JWH‐018, corrected with factor 0.3268; ref Cannaert et al. [44]; cited from earlier work) is recorded as 774.2 (685.4–911.9) ^a %.

For `COC(=O)C(NC(=O)c1nn(CCCCCF)c2ccccc12)C(C)(C)C` (centres unmarked) [5F‐ADB], in data set [4], the “G total (risk score)” value is recorded as 6.9, the G2 turned out to be 1.9, the G3 is reported as 2.6 and the G1 came out at 2.5. On hCB1 receptor [1], the midpoint of the response, the EC50, lay at 1.95 nM and the Emax came out at 103%. The same compound gave a Ki on hCB1 receptor [2] of 0.0993 nM. Besides, in data set [5], the No. of intoxications worked out at 33 and the Percentage in % stood at 24%. The EC50 on hCB1 receptor [3] (ref Wouters et al. [29]; read-out: βarr2 assay EC50 [nM] (95% CI); cited from earlier work) was 0.84 nM.

On to `CC(C)C(NC(=O)c1nn(Cc2ccc(F)cc2)c2ccccc12)C(N)=O` (centres unmarked) [AB‐FUBINACA], for which, on hCB1 receptor [1], the EC50 was 17.5 nM and the Emax was 114%. The same compound yielded an inhibitory constant (Ki) on hCB1 receptor [2] of 0.385 nM. Also, at hCB1 receptor [3] (read-out: βarr2 assay EC50 [nM] (95% CI); ref Noble et al. [30]; cited from earlier work), the EC50 is 15.6 nM. Besides, at hCB1 receptor [3] (relative to CP‐55940; originally normalised to JWH‐018, corrected with factor 0.3268; ref Noble et al. [30]; cited from earlier work), the “βarr2 assay Emax [%] (95% CI)” value is given as 990.5 (922.9–1059) ^a %.

`CCCCCCC(C)(C)c1ccc([C@@H]2C[C@H](O)CC[C@H]2CCCO)c(O)c1` [CP‐55940, reference compound]: the Emax at hCB1 receptor [1] is 96.9%.
